Patent publication US8710097B2, “Flavonoid dimers and methods of making and using such” (The Hong Kong Polytechnic University, priority 2006, dated 2014)

What was measured:
P388/ADR cells = assay: cells; conditions: P388/ADR
LePentR50 promastigotes = assay: Pentamidine accumulation assay by HPLC; type: cell-based, Leishmania enriettii; conditions: 0.84 mM pentamidine, 3 hr
Protocol: The effect of flavonoid dimers on accumulation of pentamidine was investigated. […] After 3 hrs of incubation, the parasites were washed three times with cold PBS, pH 7.4. The cell pellet was then dissolved in 350 μL 75% acetonitrile and lysed by repeated freeze-thaw cycles. After lysing, the lysed cell suspension was centrifuged at 14,000 g at 4° C. for 10 min. The supernatant was collected and ready for determining pentamidine concentration using HPLC (Agilent 1100 Series). The pentamidine pools were analyzed on Zorbax ODS C18 column (4.6 mm×25 cm, 5-micron) kept at 40° C. The mobile phase consisted of water (10 mM tetramethylammonium chloride (TMAC), 10 mM sodium heptanesulphonate (SHS), 4.2 mM phosphoric acid (PA)) for pump A and 75% acetonitrile (ACN) in water (10 mM TMAC, 10 mM SHS, 4.2 mM PA) for pump B. The column was equilibrated at 40° C. overnight before analyses. Using a flow rate of 1.0 mL/min and signal at 265 nm, analyses were made at 58% pump A and 42% pump B. The retention time of pentamidine is 3.2 min. Compound 9d would not be eluted out under these conditions. To generate a standard curve, a 200 μM stock solution of pentamidine isethionate salt were prepared by dissolving 2.5 mg pentamidine isethionate salt in 21 mL 75% ACN (10 mM TMAC, 10 mM SHS, 4.2 mM PA). Concentration of 100, 50, 25 and 13 μM were then made by serial dilution, allowing the generation of standard curve.

In the case of O=c1cc(-c2ccc(OCCOCCOCCOCCOc3ccc(-c4cc(=O)c5c(O)cc(O)cc5o4)cc3)cc2)oc2cc(O)cc(O)c12 [Compound 9d, 1,13-Bis[4′-((5,7-dihydroxy)-4H-chromen-4-on-2-yl)phenyl]-1,4,7,10,13-pentaoxamidecane], the “reversal of resistance to taxol, vincristine and vinblastine” value (P388/ADR cells; 5 μM 9d) was “completely reverse the resistance of P388/ADR to almost the sensitive level”, the “effect on mitoxantrone resistance” value (P388/ADR cells; 9d) was “no effect” and the “saturating concentration for reversing doxorubicin and daunorubicin resistance” value (P388/ADR cells; FIG. 8B, 9B) was “about 5 μM”. For the same compound, the “RF, daunorubicin” value (P388/ADR cells; daunorubicin + 5 μM 9d or VP) was 20, the “RF, doxorubicin” value (P388/ADR cells; doxorubicin + 5 μM 9d) was 14 and the “RF, mitoxantrone” value (P388/ADR cells; mitoxantrone + 5 μM 9d) was 2. For the same compound, the “RF, taxol” value (P388/ADR cells; taxol + 5 μM 9d) was 55, the “RF, vinblastine” value (P388/ADR cells; vinblastine + 5 μM 9d) was 22 and the “RF, vincristine” value (P388/ADR cells; vincristine + 5 μM 9d) was 66. It also gave an intracellular pentamidine concentration (LePentR50 promastigotes; 15 μM 9d) of 2.95±0.01 μM pentamidine/mg protein, an intracellular pentamidine concentration (LePentR50 promastigotes; 30 μM 9d) of 4.69±0.51 μM pentamidine/mg protein and an intracellular pentamidine concentration (LePentR50 promastigotes; 60 μM 9d) of 26.6±0.6 μM pentamidine/mg protein.
